From patent publication US20130266663A1, “SOX9 INHIBITORS” (priority 2010, published 2013)

Experiments:
SOX9 = SOX9 luciferase reporter assay in transfected astrocytes; assay type: cell-based, rat; settings: cultured rat astrocytes, 24 h treatment
Source text: Cultures early after plating bear characteristics of immature and reactive astroctyes associated with acute damage. In this assay, primary astrocytes are transfected with a SOX9 reporter construct that consists of 4 repeats of the SOX9 binding site coupled to the mouse Col2a1 minimal promoter cloned upstream of a luciferase gene in the plasmid pGL4, as previously described in WO 2008/049226. After normalization for transfection efficiency, SOX9 activity can be monitored in transfected astrocytes by luciferase activity. Cells transfected with the SOX9 reporter construct were cultured in the presence and absence of potential inhibitors for 24 hours at which time the cells were lysed and luciferase levels measured. Compounds that reduced the levels of luciferase activity relative to control wells were considered as positive “hits”. In a secondary screen, false positives that cause a reduction in luciferase activity due to effects on cell viability, were eliminated using a cell viability assay (CellTiter-Flour—Promega). Subsequent to secondary screening, the “hits” were evaluated for their affect on SOX9 target gene expression by Q-PCR studies in primary astrocytes.
The utility of calmodulin antagonists (inhibitor) to decrease SOX9 target gene expression was evaluated in cultured rat astrocytes transfected with pGL4.1 4×48 Col2a1 prepared as described in Example 1. This plasmid contains 4-48 bp SOX9-binding sites from the Col2A1 enhancer which promote luciferase reporter gene expression in cells where SOX9 is active i.e. in the nucleus. The day after transfection, cells were treated for 24 h with inhibitor in concentrations as described below and in FIG. 5 before the luciferase assay was performed.
In this example, the potential of compounds that modulate calcium channels to modulate SOX9 activity is tested. The compounds were evaluated in cultured rat astrocytes transfected with pGL4.1 4×48 Col2a1. The day after transfection, cells were treated for 24 h with selected inhibitors before the luciferase assay was performed.
Antagonists to TRPV4 cation channel were tested to determine their ability to decrease the activity of SOX9 in astrocytes. The effect of TRPV4 antagonists on SOX9 function was evaluated in cultured rat astrocytes transfected with pGL4.1 4×48 Col2a1. The day after transfection, cells were treated for 24 h with 2-APB (100 μM) or ruthenium red (10 μM) before the luciferase assay was performed. […] With respect to SOX9 target genes, Q-PCR analysis of aged primary astrocyte cultures was performed to determine the impact of the TRPV4 antagonists on SOX9. […] Collagen IV is a significant scarring extracellular matrix produced by astrocytes and contributing to the inhibitory properties of the glial scar.

[1] = system: rats subject to spinal cord injury; test: Behavioral testing (BBB scale) after spinal cord injury; assay type: in vivo; settings: rat SCI, 0.35 mg/ml and 3.5 mg/ml for 7 days via intrathecal miniosmotic pump; saline controls no improvement
Experimental: As examples of the general utility of chemical compounds for general CNS damage and repair, chlorpromazine was assessed in rodent models of spinal cord injury and stroke (MCAO). […] Briefly, rats were subject to spinal cord injury as described and administered chlropromzaine at 0.35 mg/ml and 3.5 mg/ml for 7 days via the intrathecal miniosmotic pump. At 7 days, 4 rats were assessed for behavioral recovery, prior to being sacrificed for gene expression analyses as described above.
In these studies rats (n=16 per group) will receive the SOX9 inhibitor for 6 weeks at which time half of the animals will be processed for SOX9 target gene expression by Q-PCR (as described above) and half will be processed for immunohistochemistry. […] Locomotor recovery, chronic pain syndromes and autonomic function will be assessed in treated and control mice. Motor function will be evaluated once per week using the Basso, Beattie and Bresnahan (BBB) scale for scoring hind limb function (Basso 1995). The presence of mechanical allodynia (a pain syndrome in which innocuous stimuli are perceived as painful) will be assessed once a week by stimulating the backs of the mice with a modified 1.569 mN Semmes Weinstein monofilament at, and rostral, to the level of the injury. […] Finally autonomic function will be assessed by measuring the degree of autonomic dysreflexia in animals before being sacrificed. […]

CN(C)CCCN1c2ccccc2Sc2ccc(Cl)cc21 [chlorpromazine]
concentration at which the decrease in luciferase reporter activity is optimized / maximal (SOX9): 20 µM | luciferase reporter activity (SOX9 activity) (SOX9; various concentrations (FIG. 5)): apparent dose dependent response to limiting luciferase expression | locomoter function score (BBB scale) [1]: non-zero scores
